These results are taken from PubChem BioAssay (NCI).

Each structure is given as a SMILES string.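 Test compounds were applied to cells in 96-well plates for 48 hours at 5 doses. At the TGI there is no net growth.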 Where a SMILES comes first, the peptide text is derived from it. The star is where a group is joined. Cbz = O=C(OCc1ccccc1)*; Boc = CC(C)(C)OC(=O)*; Bn = c1ccc(C*)cc1 Where only a bound is given, the exact number is not on record here.

Test systems include A549 NSCLC; DU-145 prostate; HOP-62 NSCLC; IGROV1 ovarian; M14 melanoma; MCF7 breast; MDA-MB-435; MDA-N; NCI/ADR-RES ovarian; OVCAR-4 ovarian; OVCAR-5 ovarian; PC-3 prostate; RPMI-8226 leukemia; SK-MEL-2 melanoma; SK-MEL-28 melanoma; SNB-75 CNS; SR leukemia; U251 CNS; OVCAR-8 ovarian; HS 578T breast.
What all share (experiment): NCI tumour cell line growth inhibition, 48 h

On to `CCOP(=O)(OCC)C(Nc1cccc([N+](=O)[O-])c1)c1ccccc1` (configuration not stated), for which the TGI was greater than 100 µM in the assay on A549 NSCLC; greater than 100 µM with DU-145 prostate; greater than 100 µM in the assay on HOP-62 NSCLC; 25.5 µM in the assay with IGROV1 ovarian; greater than 100 µM in the assay with M14 melanoma; greater than 100 µM in the assay on MCF7 breast. The TGI in the assay on MDA-MB-435, with MDA-N, with NCI/ADR-RES ovarian, in the assay on OVCAR-4 ovarian, in the assay with OVCAR-5 ovarian and in the assay on PC-3 prostate was greater than 100 µM in each case. Besides, the TGI with RPMI-8226 leukemia, in the assay with SK-MEL-2 melanoma, in the assay with SK-MEL-28 melanoma, in the assay with SNB-75 CNS, in the assay with SR leukemia and with U251 CNS was greater than 100 µM in each case.
As to `COc1cc(/C=C/C(=O)OC2C(O)C3CC(OC(=O)c4cc(OC)c(OC)c(OC)c4)CC2N3C)cc(OC)c1OC` (configuration not stated), the TGI in the assay with A549 NSCLC was greater than 50 µM; in the assay with DU-145 prostate, greater than 50 µM; in the assay on HOP-62 NSCLC, greater than 50 µM; with IGROV1 ovarian, 39.8 µM; in the assay with M14 melanoma, greater than 50 µM; with MCF7 breast, greater than 50 µM. Besides, the TGI in the assay with MDA-MB-435, in the assay on MDA-N, in the assay with NCI/ADR-RES ovarian, with OVCAR-4 ovarian, in the assay on OVCAR-5 ovarian and with OVCAR-8 ovarian was greater than 50 µM each time. Besides, the TGI in the assay with PC-3 prostate is greater than 50 µM; with RPMI-8226 leukemia it was greater than 50 µM; in the assay on SK-MEL-2 melanoma it was greater than 50 µM; in the assay with SNB-75 CNS, greater than 50 µM; in the assay with SR leukemia, 33.3 µM; in the assay with U251 CNS, greater than 50 µM.
With `CN1CCN(c2cc3c(cc2F)c(=O)c(C(=O)O)cn3C2CC2)CC1CC#N` (configuration not stated), the TGI in the assay on A549 NSCLC, in the assay with DU-145 prostate, with HOP-62 NSCLC, in the assay with IGROV1 ovarian, with MCF7 breast and in the assay with MDA-MB-435 was greater than 100 µM in each case. Also, the TGI with MDA-N, in the assay on NCI/ADR-RES ovarian, in the assay with OVCAR-4 ovarian, with OVCAR-5 ovarian, in the assay with OVCAR-8 ovarian and with RPMI-8226 leukemia was greater than 100 µM each time. For the same compound, the TGI in the assay with SK-MEL-28 melanoma, in the assay on SNB-75 CNS, with SR leukemia and with U251 CNS was greater than 100 µM throughout.
Take `CC(C)(C)OC(=O)NC(Cc1ccc(OCc2ccccc2)cc1)C(=O)NC(CCCCNC(=O)OCc1ccccc1)C(=O)O` (configuration not stated) (Boc-Tyr(Bn)-Lys(Cbz)-OH; configuration not given here): the TGI in the assay with A549 NSCLC, in the assay on HOP-62 NSCLC, with HS 578T breast, with IGROV1 ovarian, with M14 melanoma and with MCF7 breast was greater than 100 µM each time. Moreover, the TGI in the assay with MDA-N is greater than 100 µM; with OVCAR-5 ovarian, greater than 100 µM; in the assay with OVCAR-8 ovarian it was greater than 100 µM; with PC-3 prostate, greater than 100 µM; with RPMI-8226 leukemia, greater than 100 µM; with SK-MEL-2 melanoma it was 80 µM. Also, the TGI in the assay on SK-MEL-28 melanoma was 44.2 µM; with SNB-75 CNS, greater than 100 µM; in the assay with SR leukemia, 89.6 µM; in the assay on U251 CNS, greater than 100 µM.
On to `CC(C)(C)[Si](C)(C)OCC1OC(n2ccc(=O)[nH]c2=O)C(O[Si](C)(C)C(C)(C)C)[C@@]12O[C@H]2C(N)=O` (some centres not stated), for which the TGI in the assay on A549 NSCLC amounted to 25.9 µM; with DU-145 prostate, 17.6 µM; in the assay on HOP-62 NSCLC it was 26.8 µM; in the assay with IGROV1 ovarian, 8.66 µM; in the assay with M14 melanoma, 42.9 µM; with MCF7 breast, 18.7 µM. Also, the TGI in the assay with MDA-MB-435 came to 23.1 µM; in the assay on MDA-N, 24.1 µM; in the assay with NCI/ADR-RES ovarian it was 38.5 µM; in the assay with OVCAR-4 ovarian, 89.5 µM; with OVCAR-5 ovarian, 40.6 µM; in the assay on OVCAR-8 ovarian it was 32.5 µM. Besides, the TGI is 17.8 µM in the assay on PC-3 prostate; greater than 100 µM in the assay with RPMI-8226 leukemia; 34.6 µM in the assay on SK-MEL-2 melanoma; greater than 100 µM with SK-MEL-28 melanoma; 24.7 µM with SNB-75 CNS; 23.2 µM with U251 CNS.
`O=C(c1ccco1)n1c2ccc(Br)cc2c2nc3ccccc3nc21`: the TGI was greater than 100 µM in the assay with DU-145 prostate; 87 µM in the assay on HOP-62 NSCLC; greater than 100 µM in the assay on IGROV1 ovarian; greater than 100 µM with M14 melanoma; greater than 100 µM in the assay with MCF7 breast; greater than 100 µM in the assay with MDA-MB-435. The TGI in the assay with MDA-N, in the assay with NCI/ADR-RES ovarian, in the assay with OVCAR-4 ovarian, in the assay with OVCAR-5 ovarian, with OVCAR-8 ovarian and with PC-3 prostate was greater than 100 µM in each case. The TGI in the assay on RPMI-8226 leukemia is 54.6 µM; with SK-MEL-2 melanoma it was greater than 100 µM; in the assay on SK-MEL-28 melanoma it was greater than 100 µM; in the assay on SNB-75 CNS, 58.6 µM; in the assay on SR leukemia, greater than 100 µM; in the assay with U251 CNS, greater than 100 µM.
As for `COc1cc(NCc2ccc3nc(-c4ccccc4)c(N)nc3c2)cc(OC)c1OC`, the TGI in the assay with A549 NSCLC is 83.8 µM; in the assay on DU-145 prostate it was 99.6 µM; in the assay with HOP-62 NSCLC, greater than 100 µM; in the assay with IGROV1 ovarian, greater than 100 µM; in the assay with M14 melanoma, 37.8 µM; with MCF7 breast, 55.9 µM. Further, the TGI in the assay with MDA-MB-435 is 50.7 µM; in the assay with MDA-N, greater than 100 µM; in the assay with NCI/ADR-RES ovarian, 57.8 µM; in the assay on OVCAR-4 ovarian, greater than 100 µM; in the assay with OVCAR-5 ovarian, greater than 100 µM; with OVCAR-8 ovarian, 57.3 µM. Also, the TGI was 93.6 µM in the assay on PC-3 prostate; greater than 100 µM in the assay with SK-MEL-2 melanoma; 69 µM in the assay with SK-MEL-28 melanoma; 73.5 µM with SNB-75 CNS; greater than 100 µM in the assay with SR leukemia; greater than 100 µM in the assay with U251 CNS.
